Results published in ChEMBL document CHEMBL1240466, “New substituted 4-arylaminoquinazolines as potent inhibitors of breast tumor cell lines: in vitro and docking experiments” (Eur J Med Chem, 2010).
Active and inactive are the calls of the source.

Legend:
Assay type in all cases: functional, cell-based
MCF7 = assay: Cytotoxicity against human MCF7 cells by spectrophotometry
NCI/ADR-RES = assay: Cytotoxicity against human NCI/ADR-RES cells by spectrophotometry
NCI-H460 = assay: Cytotoxicity against human NCI-H460 cells by spectrophotometry
UACC-62 = assay: Cytotoxicity against human UACC62 cells by spectrophotometry
OVCAR-3 = assay: Cytotoxicity against human OVCAR-3 cells by spectrophotometry
PC-3 = assay: Cytotoxicity against human PC3 cells by spectrophotometry
K562 = assay: Cytotoxicity against human K562 cells by spectrophotometry
HT-29 = assay: Cytotoxicity against human HT-29 cells by spectrophotometry

Measured: Activity

c1ccc(Nc2ncnc3cc4c(cc23)OCO4)cc1
active: MCF7 | NCI/ADR-RES | NCI-H460 | UACC-62 | OVCAR-3 | PC-3 | K562 | HT-29

Cc1cccc(Nc2ncnc3cc4c(cc23)OCO4)c1
active: MCF7 | NCI/ADR-RES | NCI-H460 | UACC-62 | OVCAR-3 | PC-3 | K562 | HT-29
